Measured values: paper PMC10709440, “High-throughput ligand profile characterization in novel cell lines expressing seven heterologous insect olfactory receptors for the detection of volatile plant biomarkers” (Scientific Reports, 2023)
Where “and” joins values, the source holds several entries; their conditions need not be identical. Equal entries are not always repeated. Where two headings read alike, the source gives them in different places.

How the values were obtained:
[1] = target: T1, Drosophila OR13a (Drosophila melanogaster, UniProt Q9VXL0); test: Calcium ion fluorescence (GCaMP6) assay, OR13a stable HEK293 cell line; type: cell-based; conditions: for activation at 1 µM: HEK293, read-out: OR13a Average response (VUAA1-normalized), 1 μM VOC; for activation at 1 µM / activation at 10 µM / activation at 100 µM: 50 μM VUAA1 = 1, responses not exceeding 0.05 considered 0; for activation at 10 µM: HEK293, read-out: OR13a Average response (VUAA1-normalized), 10 μM VOC; for activation at 100 µM: HEK293, read-out: OR13a Average response (VUAA1-normalized), 100 μM VOC; for OR13a response (VUAA1-normalized) at 1 μM / OR13a response (VUAA1-normalized) at 10 μM / OR13a response (VUAA1-normalized) at 100 μM: OR13a cell line; for OR13a response (VUAA1-normalized) at 1 μM: VOC concentration 1 μM; for OR13a response (VUAA1-normalized) at 10 μM: VOC concentration 10 μM; for OR13a response (VUAA1-normalized) at 100 μM: VOC concentration 100 μM; for DF norm AVERAGE OR13a: threshold 0.05, below shown as 0
T1 construct: expressed in transfected cells
T1 sequence (Q9VXL0 1-418): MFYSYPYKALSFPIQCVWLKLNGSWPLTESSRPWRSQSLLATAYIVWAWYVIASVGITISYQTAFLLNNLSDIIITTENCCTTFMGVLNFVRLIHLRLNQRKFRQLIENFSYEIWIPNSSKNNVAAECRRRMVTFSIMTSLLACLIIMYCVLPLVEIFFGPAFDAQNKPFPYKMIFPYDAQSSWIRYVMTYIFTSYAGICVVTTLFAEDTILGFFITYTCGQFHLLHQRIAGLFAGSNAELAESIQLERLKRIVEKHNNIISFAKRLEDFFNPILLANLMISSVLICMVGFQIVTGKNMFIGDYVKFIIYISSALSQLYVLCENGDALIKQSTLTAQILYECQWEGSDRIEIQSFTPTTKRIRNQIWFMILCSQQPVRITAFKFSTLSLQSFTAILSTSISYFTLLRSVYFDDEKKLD
T1 sequence (Q9VNB5 1-486 partner): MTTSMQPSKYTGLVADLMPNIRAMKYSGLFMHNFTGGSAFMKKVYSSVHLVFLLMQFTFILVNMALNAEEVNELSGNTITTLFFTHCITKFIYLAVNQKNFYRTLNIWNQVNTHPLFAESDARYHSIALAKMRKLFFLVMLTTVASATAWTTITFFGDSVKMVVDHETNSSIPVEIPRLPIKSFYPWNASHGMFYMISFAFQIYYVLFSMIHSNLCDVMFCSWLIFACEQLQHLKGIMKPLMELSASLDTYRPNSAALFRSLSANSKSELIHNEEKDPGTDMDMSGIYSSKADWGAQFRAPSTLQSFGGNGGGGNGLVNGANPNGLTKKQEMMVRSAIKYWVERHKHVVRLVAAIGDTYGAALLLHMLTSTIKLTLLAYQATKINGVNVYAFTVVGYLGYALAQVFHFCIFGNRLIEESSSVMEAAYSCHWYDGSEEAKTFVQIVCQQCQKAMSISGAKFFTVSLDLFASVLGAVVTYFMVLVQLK
How it was run: (§1)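 Responses are VUAA1-normalized ΔF: each VOC-evoked calcium signal, (FMAX−F0)/F0 over 30 s after injection, divided by the same line's mean 50 µM VUAA1 response. Cells were doxycycline-induced HEK293 with GCaMP6 and the cognate Drosophila OR, in HEPES buffer pH 7.3; ligands tested 0.01–100 μM.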

[2] = target: T2, Drosophila OR10a (Drosophila melanogaster, UniProt Q9VYZ1); test: Calcium ion fluorescence (GCaMP6) assay, OR10a stable HEK293 cell line; type: cell-based; conditions: for activation at 1 µM / activation at 10 µM / activation at 100 µM: 50 μM VUAA1 = 1, responses not exceeding 0.05 considered 0; for OR10a response (VUAA1-normalized) at 1 μM / OR10a response (VUAA1-normalized) at 10 μM / OR10a response (VUAA1-normalized) at 100 μM: OR10a cell line; for OR10a response (VUAA1-normalized) at 1 μM: VOC concentration 1 μM; for OR10a response (VUAA1-normalized) at 10 μM: VOC concentration 10 μM; for OR10a response (VUAA1-normalized) at 100 μM: VOC concentration 100 μM; for DF norm AVERAGE OR10a: threshold 0.05, below shown as 0
T2 construct: expressed in transfected cells
T2 sequence (Q9VYZ1 1-406): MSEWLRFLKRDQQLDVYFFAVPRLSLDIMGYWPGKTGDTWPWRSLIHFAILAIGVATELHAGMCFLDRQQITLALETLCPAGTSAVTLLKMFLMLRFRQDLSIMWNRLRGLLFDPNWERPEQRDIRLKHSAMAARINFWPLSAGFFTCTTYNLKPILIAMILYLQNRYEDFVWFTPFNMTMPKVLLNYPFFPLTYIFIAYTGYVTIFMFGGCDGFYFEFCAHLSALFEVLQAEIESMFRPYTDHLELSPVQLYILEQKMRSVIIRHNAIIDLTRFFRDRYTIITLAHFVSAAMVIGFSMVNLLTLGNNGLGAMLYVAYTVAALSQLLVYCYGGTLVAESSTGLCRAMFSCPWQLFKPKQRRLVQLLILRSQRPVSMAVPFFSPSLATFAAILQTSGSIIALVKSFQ
T2 sequence (Q9VNB5 1-486 partner): T1 sequence (Q9VNB5 1-486 partner)
How it was run: as §1

[3] = ligand concentration 1 (unit not given)
[4] = ligand concentration 10 (unit not given)
[5] = ligand concentration 100 (unit not given)
[6] = HEK293, 1 μM VOC, read-out: OR10a Average response (VUAA1-normalized)
[7] = HEK293, 10 μM VOC, read-out: OR10a Average response (VUAA1-normalized)
[8] = HEK293, 100 μM VOC, read-out: OR10a Average response (VUAA1-normalized)

For `COC(=O)c1ccccc1O` [methyl salicylate], the activation at 1 µM [1] was 0%, the activation at 10 µM [1] was 1% and the activation at 100 µM [1] was 21%. For the same compound, the “OR13a response (VUAA1-normalized) at 1 μM” value [1] was 0.00, the “OR13a response (VUAA1-normalized) at 10 μM” value [1] was 0.00 and the “OR13a response (VUAA1-normalized) at 100 μM” value [1] was 0.21. The “DF norm AVERAGE OR13a” value [1, 3] was 0, the “DF norm AVERAGE OR13a” value [1, 4] was 0 and the “DF norm AVERAGE OR13a” value [1, 5] was 0.213. The EC50 ([2]; AVERAGE EC50, from the average LOG EC50 of 5 biological replicates, unit inferred) was 75.5 nM, the EC50 ([2]; EC50, FITTED AVERAGE CURVE, fit of the averaged dose-response curve, unit inferred) was 68.6 nM and the EC50 ([2]; EC50, OR10a cell line, fitted Hill equation, Hill coefficient constrained to 1, maximal response max 1) was 80 nM. The EC50 ([2]; EC50 AVERAGE (arithmetic average of fitted EC50), average of 5 biological replicates, unit inferred) was 90.1 nM, the activation at 1 µM [2, 6] was 49% and the activation at 10 µM [2, 7] was 55%. For the same compound, the activation at 100 µM [2, 8] was 95%, the Emax ([2]; HEK293, read-out: VUAA1 normalized MAX response) was 44% and the “n, FITTED AVERAGE CURVE” value ([2]; Hill coefficient of the fit of the averaged curve) was 0.855. For the same compound, the “OR10a response (VUAA1-normalized) at 1 μM” value [2] was 0.49, the “OR10a response (VUAA1-normalized) at 10 μM” value [2] was 0.55 and the “OR10a response (VUAA1-normalized) at 100 μM” value [2] was 0.95. For the same compound, the “AVERAGE MAX” value ([2]; average of 5 biological replicates) was 0.4437, the “response, AVERAGE” value ([2]; concentration 0.008, average of biological replicates) was 0.06886 and the “response, AVERAGE” value ([2]; concentration 0.016, average of biological replicates) was 0.1014. The “response, AVERAGE” value ([2]; concentration 0.032, N 1) was 0.1576, the “response, AVERAGE” value ([2]; concentration 0.075, average of biological replicates) was 0.2051 and the “response, AVERAGE” value ([2]; concentration 0.15, average of biological replicates) was 0.2778. For the same compound, the “response, AVERAGE” value ([2]; concentration 0.3, average of biological replicates) was 0.4027, the “response, AVERAGE” value ([2]; concentration 0.6, average of biological replicates) was 0.307 and the “response, AVERAGE” value ([2]; concentration 1.25, average of biological replicates) was 0.417. For the same compound, the “response, AVERAGE” value ([2]; concentration 2.5, average of biological replicates) was 0.471, the “response, AVERAGE” value ([2]; concentration 5, average of biological replicates) was 0.4362 and the “response, AVERAGE” value ([2]; concentration 10, average of biological replicates) was 0.4759. For the same compound, the “response, AVERAGE” value ([2]; concentration 20, average of biological replicates) was 0.4313, the “response, AVERAGE” value ([2]; concentration 40, average of biological replicates) was 0.3644 and the “MAX, fitted average curve” value ([2]; fit of the averaged dose-response curve) was 0.4394. The “MAX (fitted parameter)” value ([2]; individual biological replicates, normalized response) was 0.4829 and 0.2572 and 0.5237 and 0.5964 and 0.3582, the “DF norm AVERAGE OR10a” value [2, 3] was 0.4904 and the “DF norm AVERAGE OR10a” value [2, 4] was 0.5549. The “DF norm AVERAGE OR10a” value [2, 5] was 0.9525.

`CCCCCCCCC=O` [nonanal] was tested, and the activation at 1 µM [1] was 0%, the activation at 10 µM [1] was 0% and the activation at 100 µM [1] was 0%. For the same compound, the “OR13a response (VUAA1-normalized) at 1 μM” value [1] was 0.00, the “OR13a response (VUAA1-normalized) at 10 μM” value [1] was 0.00 and the “OR13a response (VUAA1-normalized) at 100 μM” value [1] was 0.00. For the same compound, the “DF norm AVERAGE OR13a” value [1, 3] was 0, the “DF norm AVERAGE OR13a” value [1, 4] was 0 and the “DF norm AVERAGE OR13a” value [1, 5] was 0. The activation at 1 µM [2, 6] was 0%, the activation at 10 µM [2, 7] was 3% and the activation at 100 µM [2, 8] was 0%. The “OR10a response (VUAA1-normalized) at 1 μM” value [2] was 0.00, the “OR10a response (VUAA1-normalized) at 10 μM” value [2] was 0.00 and the “OR10a response (VUAA1-normalized) at 100 μM” value [2] was 0.00. The “DF norm AVERAGE OR10a” value [2, 3] was 0, the “DF norm AVERAGE OR10a” value [2, 4] was 0 and the “DF norm AVERAGE OR10a” value [2, 5] was 0.

With `Cc1ccccc1C` [o-xylene] the activation at 1 µM [1] was 0%, the activation at 10 µM [1] was 0% and the activation at 100 µM [1] was 1.83%. The “OR13a response (VUAA1-normalized) at 1 μM” value [1] was 0.00, the “OR13a response (VUAA1-normalized) at 10 μM” value [1] was 0.00 and the “OR13a response (VUAA1-normalized) at 100 μM” value [1] was 0.00. The “DF norm AVERAGE OR13a” value [1, 3] was 0, the “DF norm AVERAGE OR13a” value [1, 4] was 0 and the “DF norm AVERAGE OR13a” value [1, 5] was 0. It also gave an activation at 1 µM ([2]; HEK293, read-out: OR10a Average response (VUAA1-normalized), 1 μM VOC) of 0%, an activation at 10 µM ([2]; HEK293, read-out: OR10a Average response (VUAA1-normalized), 10 μM VOC) of 0% and an activation at 100 µM ([2]; HEK293, read-out: OR10a Average response (VUAA1-normalized), 100 μM VOC) of 0%. The “OR10a response (VUAA1-normalized) at 1 μM” value [2] was 0.00, the “OR10a response (VUAA1-normalized) at 10 μM” value [2] was 0.00 and the “OR10a response (VUAA1-normalized) at 100 μM” value [2] was 0.00. For the same compound, the “DF norm AVERAGE OR10a” value [2, 3] was 0, the “DF norm AVERAGE OR10a” value [2, 4] was 0 and the “DF norm AVERAGE OR10a” value [2, 5] was 0.
